Laboratory results from patent EP0545103A1, “Insecticidal, acaricidal and molluscicidal 1-(substituted) thioalkylpyrroles” (priority 1991, dated 1993).

Legend:
Assay type in all cases: in vivo
Parameters in all cases: key: 0: no effect; 10-25% kill; 26-35% kill; 36-45% kill; 46-55% kill; 56-65% kill; 66-75% kill; 76-85% kill; 86-99% kill; 9: 100% kill
[1] = test system: Heliothis virescens, egg, tobacco budworm; assay: Tobacco budworm egg test, dipped cotton leaf and eggs; conditions: mortality rating after 3 days
Summary of the method: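 Scoring is by mortality counts after 3 days, graded on a rating scale. Tobacco budworm eggs (6-30 h old) on cheesecloth and a young cotton leaf were each dipped about 3 s in the test suspension. Suspensions were made from a 10,000 ppm stock in 35% acetone/water with further water dilutions.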

[2] = test system: Spodoptera eridania, 3rd instar larvae, southern armyworm; assay: Southern armyworm 3rd instar test, dipped limabean leaf; conditions: for ARMYWORM Day 3: rating at 3 days; for ARMYWORM Day 5: rating at 5 days
Summary of the method: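 Ten 3rd instar larvae fed on limabean leaves that had been dipped for 3 s in test solution and dried. Test solutions were diluted in water from a 10,000 ppm stock in 35% acetone/water. Ratings at days 3 and 5 covered death, feeding reduction and abnormal molting.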

[3] = test system: Tetranychus urticae (OP-resistant strain), 2-spotted spider mite; assay: 2-spotted spider mite test, dipped infested limabean plants
Summary of the method: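 Compound dissolved at 10,000 ppm in 35% aqueous acetone, then water-diluted; limabean primary leaves carrying ~100 OP-resistant mites each are dipped 3 s and dried. Adult mortality read on one leaf after 2 days, eggs/newly emerged nymphs on another after 5 days, scored by rating scale.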

[4] = test system: Heliothis virescens, 3rd instar tobacco budworm; assay: Tobacco budworm 3rd instar test, dipped cotton cotyledons; conditions: mortality rating after 3 days
Summary of the method: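 Rating-scale scores of mortality and reduced feeding, taken 3 days after single third-instar larvae were caged on dried cotton cotyledon quarters. Cotyledons were pre-dipped in test solutions diluted with water from a 10,000 ppm stock in 35% acetone.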

[5] = test system: Spodoptera eridania, 3rd instar larvae, southern armyworm; assay: Southern armyworm systemic uptake (stem systemic) test; conditions: cut stem in emulsion 3 days
[6] = test system: Spodoptera eridania, 3rd instar larvae, southern armyworm; assay: Southern armyworm 7-day residual test; conditions: R designates Residual: 7-day residual foliage, concentration not given; for ARMYWORM Day 3 R: rating at 3 days; for ARMYWORM Day 5 R: rating at 5 days
Summary of the method: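 Third-instar southern armyworm larvae were exposed to lima bean foliage that had been treated, then held 7 days under greenhouse lamps simulating bright sun for 14 h per day. Treatment solutions were diluted in water from a 10,000 ppm stock in 35% acetone. Results are scale ratings.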

[7] = test system: Aphis fabae, mixed instar, bean aphid; assay: Bean aphid spray test on nasturtium; conditions: 100 ppm
Summary of the method: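 Mortality rated on a scale 2 days after treatment of aphid-infested (100-200 per plant, infested a day earlier) ~5 cm nasturtiums sprayed to complete coverage. Spray solutions: 10,000 ppm compound in 35% acetone in water, with further water dilutions.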

[8] = 10 ppm, mortality rating after 2 days
[9] = spray, mortality rating after 2 days
[10] = 300 ppm, adult mites, rating scale 0-9
[11] = 300 ppm, mite eggs, rating scale 0-9
[12] = 300 ppm, mite nymphs, rating scale 0-9

N#Cc1c(Cl)c(C(F)(F)F)n(CSC2=NCCN2)c1-c1ccc(Cl)cc1 [Example 4]
0: OP-RESISTANT MITES Adult [3, 8] | OP-RESISTANT MITES Egg ([3]; 10 ppm, rating after 5 days) | OP-RESISTANT MITES Nymph ([3]; 10 ppm, rating after 5 days) | OP-RESISTANT MITES Egg ([3]; 100 ppm, rating after 5 days) | OP-RESISTANT MITES Nymph ([3]; 100 ppm, rating after 5 days) | ARMYWORM Stem Sys [5] | APHIDS [7, 9]
9 (100% kill): TOBACCO BUDWORM Egg ([1]; 100 ppm) | TOBACCO BUDWORM Egg ([1]; 1000 ppm) | ARMYWORM Day 3 ([2]; 10 ppm) | ARMYWORM Day 5 ([2]; 10 ppm) | ARMYWORM Day 3 ([2]; 100 ppm) | ARMYWORM Day 5 ([2]; 100 ppm) | ARMYWORM Day 3 ([2]; 1000 ppm) | ARMYWORM Day 5 ([2]; 1000 ppm) | OP-RESISTANT MITES Egg ([3]; 300 ppm, rating after 5 days) | TOBACCO BUDWORM 3rd Instar ([4]; 10 ppm) | TOBACCO BUDWORM 3rd Instar ([4]; 100 ppm) | TOBACCO BUDWORM 3rd Instar ([4]; 1000 ppm) | ARMYWORM Day 3 R [6] | ARMYWORM Day 5 R [6]

CN(C)C(=S)SCn1c(-c2ccc(Cl)cc2)c(C#N)c(Cl)c1C(F)(F)F [Example 21]
9 (100% kill): ARMYWORM Day 3 ([2]; 10 ppm) | ARMYWORM Day 5 ([2]; 10 ppm) | ARMYWORM Day 3 ([2]; 100 ppm) | ARMYWORM Day 5 ([2]; 100 ppm) | ARMYWORM Day 3 ([2]; 1000 ppm) | ARMYWORM Day 5 ([2]; 1000 ppm) | OP-RESISTANT MITES Adult [3, 8] | OP-RESISTANT MITES Adult ([3]; 100 ppm, mortality rating after 2 days) | OP-RESISTANT MITES Adult ([3]; 300 ppm, mortality rating after 2 days) | OP-RESISTANT MITES Nymph ([3]; 300 ppm, rating after 5 days) | TOBACCO BUDWORM 3rd Instar ([4]; 10 ppm) | TOBACCO BUDWORM 3rd Instar ([4]; 100 ppm) | TOBACCO BUDWORM 3rd Instar ([4]; 1000 ppm) | ARMYWORM Day 3 R [6] | ARMYWORM Day 5 R [6]
0: TOBACCO BUDWORM Egg ([1]; 100 ppm) | TOBACCO BUDWORM Egg ([1]; 1000 ppm) | OP-RESISTANT MITES Egg ([3]; 10 ppm, rating after 5 days) | OP-RESISTANT MITES Nymph ([3]; 10 ppm, rating after 5 days) | OP-RESISTANT MITES Nymph ([3]; 100 ppm, rating after 5 days) | OP-RESISTANT MITES Egg ([3]; 300 ppm, rating after 5 days) | ARMYWORM Stem Sys [5] | APHIDS [7, 9]
8 (86-99% kill): OP-RESISTANT MITES Egg ([3]; 100 ppm, rating after 5 days)

CN=C(NC)SCn1c(Cl)c(Cl)c(C#N)c1-c1ccc(Cl)c(Cl)c1 [Example 15]
0: TOBACCO BUDWORM Egg ([1]; 100 ppm) | TOBACCO BUDWORM Egg ([1]; 1000 ppm) | OP-RESISTANT MITES Adult [3, 10] | OP-RESISTANT MITES Egg [3, 11] | OP-RESISTANT MITES Nymph [3, 12] | TOBACCO BUDWORM 3rd Instar ([4]; 10 ppm) | ARMYWORM Stem Sys [5] | APHIDS ([7]; rating scale 0-9)
9 (100% kill): ARMYWORM Day 3 ([2]; 10 ppm) | ARMYWORM Day 5 ([2]; 10 ppm) | ARMYWORM Day 3 ([2]; 100 ppm) | ARMYWORM Day 5 ([2]; 100 ppm) | ARMYWORM Day 3 ([2]; 1000 ppm) | ARMYWORM Day 5 ([2]; 1000 ppm) | ARMYWORM Day 3 R [6] | ARMYWORM Day 5 R [6]

CCOC(=S)SCn1c(Cl)c(C#N)c(Cl)c1-c1ccc(Cl)c(Cl)c1 [Example 37]
0: TOBACCO BUDWORM Egg ([1]; 1000 ppm) | OP-RESISTANT MITES Adult ([3]; 10 ppm, adult mites, rating scale 0-9) | OP-RESISTANT MITES Egg [3, 11] | OP-RESISTANT MITES Nymph [3, 12] | TOBACCO BUDWORM 3rd Instar ([4]; 10 ppm) | ARMYWORM Stem Sys [5] | APHIDS ([7]; rating scale 0-9)
4 (46-55% kill): OP-RESISTANT MITES Nymph ([3]; 10 ppm, mite nymphs, rating scale 0-9)
9 (100% kill): ARMYWORM Day 3 ([2]; 10 ppm) | ARMYWORM Day 5 ([2]; 10 ppm) | ARMYWORM Day 3 ([2]; 100 ppm) | ARMYWORM Day 5 ([2]; 100 ppm) | ARMYWORM Day 3 ([2]; 1000 ppm) | ARMYWORM Day 5 ([2]; 1000 ppm) | TOBACCO BUDWORM 3rd Instar ([4]; 100 ppm) | TOBACCO BUDWORM 3rd Instar ([4]; 1000 ppm) | ARMYWORM Day 3 R [6] | ARMYWORM Day 5 R [6]

N#Cc1c(Br)c(C(F)(F)F)n(CSC2=NCCS2)c1-c1ccc(Cl)cc1 [Example 16]
0: TOBACCO BUDWORM Egg ([1]; 100 ppm) | TOBACCO BUDWORM Egg ([1]; 1000 ppm) | OP-RESISTANT MITES Adult [3, 10] | OP-RESISTANT MITES Egg [3, 11] | OP-RESISTANT MITES Nymph [3, 12]
9 (100% kill): ARMYWORM Day 3 ([2]; 10 ppm) | ARMYWORM Day 5 ([2]; 10 ppm) | ARMYWORM Day 3 ([2]; 100 ppm) | ARMYWORM Day 5 ([2]; 100 ppm) | ARMYWORM Day 3 ([2]; 1000 ppm) | ARMYWORM Day 5 ([2]; 1000 ppm) | TOBACCO BUDWORM 3rd Instar ([4]; 10 ppm) | TOBACCO BUDWORM 3rd Instar ([4]; 100 ppm) | TOBACCO BUDWORM 3rd Instar ([4]; 1000 ppm) | ARMYWORM Day 3 R [6] | ARMYWORM Day 5 R [6]
8 (86-99% kill): APHIDS ([7]; rating scale 0-9)
4 (46-55% kill): ARMYWORM Stem Sys [5]

CSCn1c(Br)c(Br)c(C#N)c1-c1ccc(C(F)(F)F)cc1 [Example 44]
2 (26-35% kill): ARMYWORM Day 5 R [6]
9 (100% kill): ARMYWORM Day 3 ([2]; 100 ppm) | ARMYWORM Day 5 ([2]; 100 ppm) | ARMYWORM Day 3 ([2]; 1000 ppm) | ARMYWORM Day 5 ([2]; 1000 ppm) | TOBACCO BUDWORM 3rd Instar ([4]; 1000 ppm)
0: TOBACCO BUDWORM Egg ([1]; 1000 ppm) | ARMYWORM Day 3 ([2]; 10 ppm) | ARMYWORM Day 5 ([2]; 10 ppm) | OP-RESISTANT MITES Adult [3, 8] | OP-RESISTANT MITES Egg ([3]; 10 ppm, rating after 5 days) | OP-RESISTANT MITES Nymph ([3]; 100 ppm, rating after 5 days) | OP-RESISTANT MITES Egg ([3]; 300 ppm, rating after 5 days) | TOBACCO BUDWORM 3rd Instar ([4]; 10 ppm) | TOBACCO BUDWORM 3rd Instar ([4]; 100 ppm) | ARMYWORM Stem Sys [5] | ARMYWORM Day 3 R [6] | APHIDS [7, 9]
7 (76-85% kill): OP-RESISTANT MITES Egg ([3]; 100 ppm, rating after 5 days)

CN=C(NC)SCn1c(Cl)c(C#N)c(Cl)c1-c1ccc(Cl)c(Cl)c1 [Example 19]
5 (56-65% kill): OP-RESISTANT MITES Adult [3, 10]
9 (100% kill): ARMYWORM Day 3 ([2]; 100 ppm) | ARMYWORM Day 5 ([2]; 100 ppm) | ARMYWORM Day 3 ([2]; 1000 ppm) | ARMYWORM Day 5 ([2]; 1000 ppm) | TOBACCO BUDWORM 3rd Instar ([4]; 100 ppm) | TOBACCO BUDWORM 3rd Instar ([4]; 1000 ppm) | ARMYWORM Day 3 R [6] | ARMYWORM Day 5 R [6]
0: TOBACCO BUDWORM Egg ([1]; 1000 ppm) | ARMYWORM Day 3 ([2]; 10 ppm) | ARMYWORM Day 5 ([2]; 10 ppm) | OP-RESISTANT MITES Egg [3, 11] | OP-RESISTANT MITES Nymph [3, 12] | TOBACCO BUDWORM 3rd Instar ([4]; 10 ppm) | ARMYWORM Stem Sys [5] | APHIDS ([7]; rating scale 0-9)

CC1(C)CN=C(SCn2c(-c3ccc(Cl)cc3)c(C#N)c(Br)c2C(F)(F)F)NC1 [Example 10]
0: TOBACCO BUDWORM Egg ([1]; 100 ppm) | TOBACCO BUDWORM Egg ([1]; 1000 ppm) | ARMYWORM Day 3 ([2]; 10 ppm) | ARMYWORM Day 5 ([2]; 10 ppm) | OP-RESISTANT MITES Adult [3, 10] | OP-RESISTANT MITES Egg [3, 11] | OP-RESISTANT MITES Nymph [3, 12] | TOBACCO BUDWORM 3rd Instar ([4]; 10 ppm) | ARMYWORM Stem Sys [5] | APHIDS ([7]; rating scale 0-9)
9 (100% kill): ARMYWORM Day 3 ([2]; 100 ppm) | ARMYWORM Day 5 ([2]; 100 ppm) | ARMYWORM Day 3 ([2]; 1000 ppm) | ARMYWORM Day 5 ([2]; 1000 ppm) | ARMYWORM Day 3 R [6] | ARMYWORM Day 5 R [6]
